Source: patent US20240109893A1, “PREPARATION AND APPLICATION METHOD OF HETEROCYCLIC COMPOUNDS AS KRAS INHIBITOR” (SHANGHAI KECHOW PHARMA, INC., priority 2020, published 2024)

Columns and labels:
H358 cells = experiment: Cell activity experiment: activity test of H358 cells (MTT, 5 days); type: cell-based; conditions: Homo sapiens, NCI-H358, 120 h, 5 days incubation, absorbance 492 nm
Summary of the method: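 Viability was read by MTT: 4 h dye incubation, DMSO solubilisation, absorbance at 492 nm. This followed 5 days' treatment (37° C., 5% CO2) of H358 cells, pre-grown 24 h, with eight-point 3-fold dilutions up to 10000 nM final, 0.5% DMSO final, triplicate wells.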

KRAS G12C-GDP = KRAS G12C-GDP (Homo sapiens (Human), UniProt P01116, G12C); experiment: KRAS G12C-GDP exchange test (SOS/cRAF/GTP, HTRF); type: biochemical; conditions: 1 h premix with compound, 2 h reaction with SOS, cRAF, GTP
Sequence of KRAS G12C-GDP (P01116-2 other isoform, or with tags, fused parts or gaps G12C): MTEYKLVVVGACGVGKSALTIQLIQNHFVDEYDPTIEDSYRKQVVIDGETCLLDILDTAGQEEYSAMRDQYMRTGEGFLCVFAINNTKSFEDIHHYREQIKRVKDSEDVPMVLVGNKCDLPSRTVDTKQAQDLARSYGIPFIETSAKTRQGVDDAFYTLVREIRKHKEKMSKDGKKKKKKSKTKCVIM
Procedure: 2. A mixture of SOS (Pharmaron, ZZY-20190823), cRAF (Pharmaron, ZZY-20190823), GTP (Sigma, A6885-100MG), MAb Anti 6HIS-d2/MAb Anti GST-Eu (Cisbio, 61HISDLB/61GSTKLB) was added for a catalyzed reaction for 2 h.
3. The fluorescence signals of the emitted light at 615 nm and 665 nm under 320 nm excitation light were read by Biotek Microplate Reader (Synergy4).
4. The IC50 (median inhibitory concentration) of the compound was obtained by the following non-linear fitting formula: Y=Bottom+(Top−Bottom)/(1+10^((Log IC50−X)*Hill Slope)), and the data were analyzed by Graphpad 6-0 software.

C=CC(=O)N1CCN(c2nc(OC[C@@H]3CCCN3C)nc3nc(-c4cccc5cccc(Cl)c45)ccc23)C[C@@H]1CC#N [Example 254, 2-((S)-1-acryloyl-4-(7-(8-chloronaphthalen-1-yl)-2-(((S)-1-methylpyrrolidin-2-yl)methoxy)pyridino[2,3-d]pyrimidin-4-yl)piperazin-2-yl)acetonitrile]
IC50 (H358 cells): 30 nM | IC50 (KRAS G12C-GDP): 8.9 nM

C=CC(=O)N1CCN(c2nc(OCC34CCCN3CCC4)nc3c(F)c(-c4cccc5c4[C@@H]4C[C@@H]4C5)ncc23)C[C@@H]1CC#N [Example 65]
IC50 (H358 cells): 3.2 nM

C=C(F)C(=O)N1CCN(c2nc(OCC34CCCN3CCC4)nc3c(F)c(-c4cccc5c4[C@@H]4C[C@@H]4C5)ncc23)C[C@@H]1CC#N [Example 66, 2-((S)-4-(8-fluoro-2-((tetrahydro-1H-pyrrolizin-7a(5H)-yl)methoxy)-7-((1aR,6aR)-1,1a,6,6a-tetrahydrocyclopropa[a]inden-2-yl)pyridino[4,3-d]pyrimidin-4-yl)-1-(2-fluoroacryloyl)piperazin-2-yl)acetonitrile]
IC50 (H358 cells): 9 nM

C=C(F)C(=O)N1CCN(c2nc(OC[C@@]34CCCN3C[C@H](F)C4)nc3c(F)c(-c4cccc5c4C4CC4C5)ncc23)C[C@@H]1CC#N (some centres unmarked) [Example 68]
IC50 (H358 cells): 0.33 nM

C=C(F)C(=O)N1CCN(c2nc(OCC34CCCN3CCC4)nc3cc(-c4cccc5c4CCCC5)ccc23)C[C@@H]1CC#N [Example 115]
IC50 (H358 cells): 45 nM

C=CC(=O)N1CCN(c2nc(OC[C@@]34CCCN3C[C@H](F)C4)nc3c(F)c(-c4cccc5c4[C@H]4C[C@H]4C5)ncc23)C[C@@H]1CC#N [Example 69]
IC50 (H358 cells): 1.8 nM

C=C(F)C(=O)N1CCN(c2nc(OCC34CCCN3C[C@H](F)C4)nc3cc(-c4cccc5c4CCCC5)ccc23)C[C@@H]1CC#N (some centres unmarked) [Example 117]
IC50 (H358 cells): 30 nM

C=C(F)C(=O)N1CC[C@@H]2[C@H]1CN2c1nc(OC[C@@]23CCCN2C[C@H](F)C3)nc2c(F)c(-c3cccc4c3CCCC4)ncc12 [Example 16]
IC50 (H358 cells): 5 nM

C=CC(=O)N1CCN(c2nc(OC[C@@H]3CCCN3C)nc3cc(-c4cccc5cccc(Cl)c45)c(F)cc23)C[C@@H]1CC#N [Example 394, 2-((S)-1-acryloyl-4-(6-fluoro-7-(8-chloronaphthalen-1-yl)-2-(((S)-1-methylpyrrolidin-2-yl)methoxy)quinazolin-4-yl)piperazin-2-yl)acetonitrile]
IC50 (H358 cells): 158 nM

C=CC(=O)N1CCN(c2nc(OC[C@@]34CCCN3C[C@H](F)C4)nc3c(F)c(-c4cncc5c4CCCC5)ncc23)C[C@@H]1CC#N [Example 39]
IC50 (H358 cells): 8 nM

C=CC(=O)N1CCN(c2nc(OCC34CCCN3CCC4)nc3c(F)c(-c4cncc5cccc(Cl)c45)ccc23)C[C@@H]1CC#N [Example 162, (S)-2-(1-acryloyl-4-(7-(5-chloroisoquinolin-4-yl)-8-fluoro-2-((tetrahydro-1H-pyrrolizin-7a(5H)-yl)methoxy)quinazolin-4-yl)piperazin-2-yl)acetonitrile]
IC50 (H358 cells): 2 nM

C=C(F)C(=O)N1CCN(c2nc(OCC34CCCN3CCC4)nc3c(F)c(-c4cncc5cccc(Cl)c45)ccc23)C[C@@H]1CC#N [Example 163, (S)-2-(4-(7-(5-chloroisoquinolin-4-yl)-8-fluoro-2-((tetrahydro-1H-pyrrolizin-7a(5H)-yl)methoxy)quinazolin-4-yl)-1-(2-fluoroacryloyl)piperazin-2-yl)acetonitrile]
IC50 (H358 cells): 5 nM

C=CC(=O)N1CCN(c2nc(OC[C@@]34CCCN3C[C@H](F)C4)nc3c(F)c(-c4cccc5ccc(F)c(Cl)c45)ccc23)C[C@@H]1CC#N [Example 368]
IC50 (H358 cells): 0.11 nM

C=C(F)C(=O)N1CCN(c2nc(OC[C@@H]3C[C@@H](F)CN3C)nc3cc(-c4cncc5c4CCCC5)ccc23)C[C@@H]1CC#N [Example 145]
IC50 (H358 cells): 102 nM

C=C(F)C(=O)N1CCN(c2nc(OC[C@@H]3C[C@@H](F)CN3C)nc3c(F)c(-c4cncc5cccc(Cl)c45)ccc23)C[C@@H]1CC#N [Example 161]
IC50 (H358 cells): 20 nM

C=CC(=O)N1CCN(c2nc(OC[C@@H]3C[C@@H](F)CN3C)nc3cc(-c4cncc5cccc(Cl)c45)ccc23)C[C@@H]1CC#N [Example 128, 2-((S)-1-acryloyl-4-(7-(5-chloroisoquinolin-4-yl)-2-((((2S,4R)-4-fluoro-1-methylpyrrolidin-2-yl)methoxy))quinazolin-4-yl)piperazin-2-yl)acetonitrile]
IC50 (H358 cells): 20 nM

C=C(F)C(=O)N1CCN(c2nc(OC[C@@]34CCCN3C[C@H](F)C4)nc3c(OC4CC4)c(-c4c(C)ccc5[nH]ncc45)c(Cl)cc23)C[C@@H]1CC#N [Example 932, 2-((2S)-4-(6-chloro-8-cyclopropoxy-2-((2R,7aS)-2-fluorotetrahydro-1H-pyrrolizin-7a(5H)-ylmethoxy)-7-(5-methyl-1H-indazol-4-yl)quinazolin-4-yl)-1-(2-fluoroacryloyl)piperazin-2-yl)acetonitrile]
IC50 (H358 cells): 0.4 nM

C=C(F)C(=O)N1CC[C@@H]2[C@H]1CN2c1nc(OC[C@@H]2CCCN2C)nc2c(F)c(-c3ccc(F)c4c3CCCC4)ncc12 [Example 26]
IC50 (H358 cells): 40 nM

C=C(F)C(=O)N1CCN(c2nc(OC[C@@H]3CCCN3C)nc3c(F)c(-c4cccc5c4SCCC5)ncc23)C[C@@H]1CC#N [Example 53, 2-((S)-4-(8-fluoro-2-(((S)-1-methylpyrrolidin-2-yl)methoxy)-7-(thiochroman-8-yl)pyridino[4,3-d]pyrimidin-4-yl)-1-(2-fluoroacryloyl)piperazin-2-yl)acetonitrile]
IC50 (H358 cells): 180 nM

C=CC(=O)N1CCN(c2nc(OC[C@@H]3CCCN3C)nc3c(F)c(N4CCc5cc(F)ccc54)ccc23)CC1 [Example 617]
IC50 (H358 cells): 884 nM

C=C(F)C(=O)N1CCN(c2nc(OC[C@@]34CCCN3C[C@H](F)C4)nc3c(OC4CC4)c(-c4cccc5ccc(F)c(Cl)c45)c(Cl)cc23)C[C@@H]1CC#N [Example 915, 2-((2S)-4-(6-chloro-7-(8-chloro-7-fluoronaphthalen-1-yl)-8-cyclopropoxy-2-((2R,7aS)-2-fluorotetrahydro-1H-pyrrolizin-7a(5H)-ylmethoxy)quinazolin-4-yl)-1-(2-fluoroacryloyl)piperazin-2-yl)acetonitrile]
IC50 (H358 cells): 33 nM

C=C(F)C(=O)N1CCN(c2nc(OC[C@@]34CCCN3C[C@H](F)C4)nc3c(F)c(-c4cccc5c4[C@H]4C[C@H]4C5)ncc23)C[C@@H]1CC#N [Example 70]
IC50 (H358 cells): 7 nM

C=C(F)C(=O)N1CCN(c2nc(OC[C@@H]3CCCN3C)nc3c(F)c(-c4cccc5ccc(F)c(Cl)c45)ccc23)C[C@@H]1CC#N [Example 913]
IC50 (H358 cells): 3.6 nM

C=CC(=O)N1CCN(c2nc(OC[C@@H]3CCCN3C)nc3cc(-c4cccc5ccc(F)c(Cl)c45)ccc23)C[C@@H]1CC#N [Example 93, 2-((S)-1-acryloyl-4-(7-(8-chloro-7-fluoronaphthalen-1-yl)-2-(((S)-1-methylpyrrolidin-2-yl)methoxy)quinazolin-4-yl)piperazin-2-yl)acetonitrile]
IC50 (H358 cells): 6.5 nM

C=CC(=O)N1CC[C@@H]2[C@H]1CN2c1nc(OC[C@@H]2CCCN2C)nc2c(F)c(-c3ccc(F)c4c3CCCC4)ncc12 [Example 25]
IC50 (H358 cells): 10 nM

C=CC(=O)N1CCC2[C@H]1CN2c1nc(OCC23CCCN2CCC3)nc2c(F)c(-c3cccc4c3CCCC4)ccc12 (some centres unmarked) [Example 372]
IC50 (H358 cells): 5 nM

C=CC(=O)N1CCN(c2nc(OC[C@@H]3CCCN3C)nc3c(F)c(-c4cccc5c4CC(C)C5)ncc23)C[C@@H]1CC#N (stereo partly drawn) [Example 60, 2-((2S)-1-acryloyl-4-(8-fluoro-7-(2-methyl-2,3-dihydro-1H-inden-4-yl)-2-(((S)-1-methylpyrrolidin-2-yl)methoxy)pyridino[4,3-d]pyrimidin-4-yl)piperazin-2-yl)acetonitrile]
IC50 (H358 cells): 70 nM

C=C(F)C(=O)N1CCN(c2nc(OC[C@@H]3CCCN3C)nc3cc(-c4cccc5ccc(F)c(Cl)c45)ccc23)C[C@@H]1CC#N [Example 94, 2-((S)-4-(7-(8-chloro-7-fluoronaphthalen-1-yl)-2-(((S)-1-methylpyrrolidin-2-yl)methoxy)quinazolin-4-yl)-1-(2-fluoroacryloyl)piperazin-2-yl)acetonitrile]
IC50 (H358 cells): 15 nM

C=CC(=O)N1CCN(c2nc(OC[C@@H]3CCCN3C)nc3c(F)c(-c4cccc5c4CCCC5)c(Cl)cc23)CC1 [Example 76, 1-(4-(6-chloro-8-fluoro-2-(((S)-1-methylpyrrolidin-2-yl)methoxy)-7-(5,6,7,8-tetrahydronaphthalen-1-yl)quinazolin-4-yl)piperazin-1-yl)prop-2-en-1-one]
IC50 (H358 cells): 160 nM

C=CC(=O)N1CC[C@@H]2[C@H]1CN2c1nc(OCC23CCCN2CCC3)nc2c(F)c(-c3cccc4c3CCCC4)ncc12 [Example 13, 1-((1R,5R)-6-(8-fluoro-2-((tetrahydro-1H-pyrrolizin-7a(5H)-yl)methoxy)-7-(5,6,7,8-tetrahydronaphthalen-1-yl)pyridino[4,3-d]pyrimidin-4-yl)-2,6-diazabicyclo[3.2.0]hept-2-yl)prop-2-en-1-one]
IC50 (H358 cells): 5 nM

C=C(F)C(=O)N1CC[C@@H]2[C@H]1CN2c1nc(OCC23CCCN2CCC3)nc2c(F)c(-c3cncc4c3CCCC4)ncc12 [Example 46, 2-fluoro-1-(((1R,5R)-6-(8-fluoro-2-((tetrahydro-1H-pyrrolizin-7a(5H)-yl)methoxy))-7-(5,6,7,8-tetrahydroisoquinolin-4-yl)pyridino[4,3-d]pyrimidin-4-yl)-2,6-diazabicyclo[3.2.0]hept-2-yl)prop-2-en-1-one]
IC50 (H358 cells): 30 nM
